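Where inhibition never reached the appropriate level, the endpoint shown equals the highest concentration tested. Otherwise, values were interpolated linearly from a five-concentration, 48-hour dose response in 96-well plates. At the GI50, growth is halved.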 The source made the active and inactive calls. No stated cut-off is given here; in the data, active = GI50 up to about 1.1 µM and inactive = higher.
What was measured:
Test in all cases: DTP human tumour cell line panel, 48 h
[1] = tested on: OVCAR-5
[2] = tested on: 786-0
[3] = tested on: OVCAR-3
[4] = tested on: HCT-15
[5] = tested on: DU-145
[6] = tested on: Malme-3M
[7] = tested on: U-251
[8] = tested on: SN12C
[9] = tested on: Hs-578T
[10] = tested on: HOP-62
[11] = tested on: SW-620
[12] = tested on: NCI-H460
[13] = tested on: EKVX
[14] = tested on: MDA-N
[15] = tested on: HT-29
[16] = tested on: MOLT-4
[17] = tested on: PC-3
[18] = tested on: HL-60

Structure (SMILES) | GI50 [1] | GI50 [2] | GI50 [3] | GI50 [4] [µM] | GI50 [5] | GI50 [6] | GI50 [7] | GI50 [8] | GI50 [9] | GI50 [10] | GI50 [11] | GI50 [12] | GI50 [13] | GI50 [14] | GI50 [15] | GI50 [16] | GI50 [17] | GI50 [18]
Oc1c2c(nc3cc4c(cc13)OCO4)-c1ccccc1CCC2 | > 50 µM (inactive) | > 50 µM (inactive) | > 50 µM (inactive) | > 50 | > 50 µM (inactive) | > 50 µM (inactive) | > 50 µM (inactive) | > 50 µM (inactive) | 15.9 µM (inactive) | > 50 µM (inactive) | > 50 µM (inactive) | > 50 µM (inactive) | > 50 µM (inactive) | 18.9 µM (inactive) | 34.4 µM (inactive) | > 50 µM (inactive) | > 50 µM (inactive) | –
CCOC(=O)C1(C#N)C2(C#N)C(N)=NC(ON=C(C)C)(ON=C(C)C)C12C#N (stereo not given) | > 100 µM (inactive) | > 100 µM (inactive) | – | > 100 | > 100 µM (inactive) | > 100 µM (inactive) | > 100 µM (inactive) | > 100 µM (inactive) | > 100 µM (inactive) | > 100 µM (inactive) | > 100 µM (inactive) | > 100 µM (inactive) | > 100 µM (inactive) | > 100 µM (inactive) | > 100 µM (inactive) | > 100 µM (inactive) | > 100 µM (inactive) | > 100 µM (inactive)
CN(C)CC(C)(C)CN1c2ccccc2Sc2ccccc21 | 14.8 µM (inactive) | 12.9 µM (inactive) | 11.9 µM (inactive) | > 100 | 12.4 µM (inactive) | 14.8 µM (inactive) | 13.6 µM (inactive) | 12.9 µM (inactive) | 14 µM (inactive) | 12.9 µM (inactive) | 15 µM (inactive) | 13.5 µM (inactive) | 15.4 µM (inactive) | 15 µM (inactive) | 10.8 µM (inactive) | 6.55 µM (inactive) | 12.9 µM (inactive) | –
Cc1ccc(C(=O)/C=C2\Nc3ccccc3N=C2NC23CC4CC(CC(C4)C2)C3)cc1 | > 10 µM (inactive) | > 10 µM (inactive) | > 10 µM (inactive) | > 10 | > 10 µM (inactive) | > 10 µM (inactive) | > 10 µM (inactive) | > 10 µM (inactive) | > 10 µM (inactive) | > 10 µM (inactive) | 7.24 µM (inactive) | – | – | > 10 µM (inactive) | > 10 µM (inactive) | 7.8 µM (inactive) | > 10 µM (inactive) | > 10 µM (inactive)
COc1ccc(C2CC3(c4ccccc4)ON=C(c4ccccc4)N3c3ccccc3S2)cc1 (stereo not given) | > 100 µM (inactive) | > 100 µM (inactive) | > 100 µM (inactive) | > 100 | > 100 µM (inactive) | > 100 µM (inactive) | > 100 µM (inactive) | > 100 µM (inactive) | > 100 µM (inactive) | > 100 µM (inactive) | > 100 µM (inactive) | > 100 µM (inactive) | > 100 µM (inactive) | > 100 µM (inactive) | > 100 µM (inactive) | – | > 100 µM (inactive) | –
CC(C)C1=CC23CCC4C(C)(C(=O)O)CCCC4(C)C2CC1C1C(=O)N(c2ccc(C(=O)O)cc2)C(=O)C13 (stereo not given) | – | > 100 µM (inactive) | > 100 µM (inactive) | > 100 | > 100 µM (inactive) | > 100 µM (inactive) | > 100 µM (inactive) | > 100 µM (inactive) | > 100 µM (inactive) | > 100 µM (inactive) | > 100 µM (inactive) | > 100 µM (inactive) | > 100 µM (inactive) | > 100 µM (inactive) | > 100 µM (inactive) | > 100 µM (inactive) | > 100 µM (inactive) | > 100 µM (inactive)

Reference: ChEMBL document CHEMBL1201862, “PubChem BioAssay data set” (2004)
